These results are taken from ChEMBL document CHEMBL1201862, “PubChem BioAssay data set” (2004).

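How tested: cells in 96-well plates exposed to compound for 48 hours at five concentrations. GI50: concentration for 50% inhibition of growth.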 Activity calls are given as the source filed them. No stated cut-off is given here; in the data, active = GI50 up to about 1.1 µM and inactive = higher.

Some test systems named below: BT-549; OVCAR-3; EKVX; U-251; HL-60; HT-29; MDA-MB-435; MOLT-4; Malme-3M; SN12C; HCT-15; SF-268; MDA-N; CCRF-CEM; M14; SF-539; OVCAR-4; SNB-75; NCI-H522.
Holding throughout (assay): NCI-60 cell line screen, 48 h

In the case of `CCOC(=O)c1cn(CC)c2cc3c(cc2c1=O)CCS3(=O)=O`, the GI50 in the experiment on BT-549, in the experiment on OVCAR-3, in the experiment on EKVX, in the experiment on U-251, in the experiment with HL-60 and in the experiment with HT-29 was > 100 µM (inactive) throughout. The GI50 is > 100 µM (inactive) with MDA-MB-435; > 100 µM (inactive) with MOLT-4; > 100 µM (inactive) in the experiment with Malme-3M; > 100 µM (inactive) in the experiment on SN12C; more than 100 µM in the experiment on HCT-15; > 100 µM (inactive) with SF-268. Besides, the GI50 in the experiment on MDA-N, in the experiment with CCRF-CEM, in the experiment with M14 and in the experiment on SF-539 was > 100 µM (inactive) each time.
Regarding `Cc1cc(O)c2c(c1)C(C1OC(CO)C(O)C(O)C1O)c1cc(O)cc(O)c1C2=O` (stereo unspecified), the GI50 in the experiment on OVCAR-4, in the experiment with SNB-75, in the experiment with BT-549, in the experiment on OVCAR-3, with EKVX and in the experiment on U-251 was > 100 µM (inactive) in each case. Further, the GI50 with HL-60, in the experiment on HT-29, in the experiment on MDA-MB-435, with MOLT-4, with Malme-3M and in the experiment on SN12C was > 100 µM (inactive) each time. Moreover, the GI50 in the experiment on HCT-15 was more than 100 µM; in the experiment with SF-268, > 100 µM (inactive); with MDA-N it was > 100 µM (inactive); with CCRF-CEM, > 100 µM (inactive); in the experiment on M14, > 100 µM (inactive).
On to `CN(C)CCSc1cc(-c2ccccc2)c2ccccc2n1`, for which the GI50 with SNB-75 was 4.04 µM (inactive); in the experiment with BT-549, 12.3 µM (inactive); in the experiment with NCI-H522 it was 10.7 µM (inactive); in the experiment with EKVX, 15.7 µM (inactive); in the experiment with U-251 it was 10.6 µM (inactive); with HL-60, 3.69 µM (inactive). The GI50 with HT-29 is 5.78 µM (inactive); in the experiment on MDA-MB-435, 10.1 µM (inactive); with MOLT-4 it was 6.38 µM (inactive); in the experiment with Malme-3M it was 10.8 µM (inactive); in the experiment on SN12C, 15 µM (inactive); with HCT-15, 3.82 µM. The GI50 in the experiment with SF-268 is 11.8 µM (inactive); with MDA-N it was 10.2 µM (inactive); in the experiment with CCRF-CEM, 10.5 µM (inactive); with M14, 2.69 µM (inactive); in the experiment with SF-539, 9.18 µM (inactive).
As to `Cc1ccc(OCCn2cc(Nc3ccccc3)c(=O)[nH]c2=O)cc1`, the GI50 with OVCAR-4 was > 100 µM (inactive); in the experiment on SNB-75, 34.3 µM (inactive); in the experiment with BT-549, > 100 µM (inactive); in the experiment on OVCAR-3, > 100 µM (inactive); in the experiment with NCI-H522, > 100 µM (inactive); in the experiment on EKVX it was > 100 µM (inactive). Besides, the GI50 in the experiment on U-251 was > 100 µM (inactive); in the experiment with HT-29, 81.7 µM (inactive); in the experiment with MDA-MB-435, > 100 µM (inactive); with MOLT-4, > 100 µM (inactive); with Malme-3M it was > 100 µM (inactive); in the experiment with SN12C, > 100 µM (inactive). The GI50 in the experiment with HCT-15 is more than 100 µM; in the experiment on SF-268 it was > 100 µM (inactive); in the experiment on MDA-N, > 100 µM (inactive); in the experiment with CCRF-CEM, > 100 µM (inactive); with M14, > 100 µM (inactive); in the experiment on SF-539, > 100 µM (inactive).
Consider `O=C(N/N=C(COc1ccccc1)\N=C\c1ccncc1)c1ccncc1`, for which the GI50 is > 100 µM (inactive) in the experiment on OVCAR-4; 34.5 µM (inactive) with SNB-75; > 100 µM (inactive) with BT-549; > 100 µM (inactive) in the experiment with OVCAR-3; > 100 µM (inactive) in the experiment on EKVX; > 100 µM (inactive) in the experiment on U-251. Further, the GI50 in the experiment with HL-60 is > 100 µM (inactive); with HT-29 it was > 100 µM (inactive); with MDA-MB-435, > 100 µM (inactive); in the experiment on MOLT-4 it was 82 µM (inactive); in the experiment on SN12C, > 100 µM (inactive); in the experiment on HCT-15, more than 100 µM. Moreover, the GI50 in the experiment on SF-268, with MDA-N, with CCRF-CEM, with M14 and in the experiment with SF-539 was > 100 µM (inactive) in each case.
Take `CC(C)(CO)NC(=O)Nc1c(C(F)(F)F)cc(-c2ccccc2)[nH]c1=O`: the GI50 in the experiment on BT-549 is > 100 µM (inactive); in the experiment on OVCAR-3 it was 29.4 µM (inactive); with NCI-H522 it was > 100 µM (inactive); in the experiment with EKVX, > 100 µM (inactive); in the experiment with U-251, > 100 µM (inactive); with HT-29 it was > 100 µM (inactive). Further, the GI50 is > 100 µM (inactive) with MDA-MB-435; > 100 µM (inactive) with MOLT-4; > 100 µM (inactive) in the experiment with Malme-3M; > 100 µM (inactive) with SN12C; more than 100 µM in the experiment with HCT-15; > 100 µM (inactive) with SF-268. For the same molecule, the GI50 with MDA-N, with CCRF-CEM and with M14 was > 100 µM (inactive) each time.
`Cc1cc2c(nn1)-c1ccccc1C2=O`: the GI50 with OVCAR-4, with BT-549, with OVCAR-3, with NCI-H522, with EKVX and with U-251 was > 10 µM (inactive) throughout. Moreover, the GI50 in the experiment on HL-60, in the experiment with HT-29, with MDA-MB-435, in the experiment on MOLT-4, in the experiment with Malme-3M and with SN12C was > 10 µM (inactive) throughout. In addition, the GI50 in the experiment on HCT-15 was more than 10 µM; in the experiment with SF-268, > 10 µM (inactive); in the experiment on MDA-N it was > 10 µM (inactive); with CCRF-CEM, > 10 µM (inactive); with M14, > 10 µM (inactive); with SF-539, > 10 µM (inactive).
Regarding `C[C@H](NC1=C(Cl)C(=O)c2c(O)ccc(O)c2C1=O)C(=O)Nc1ccc([N+](=O)[O-])cc1`, the GI50 in the experiment on OVCAR-4 is 1.73 µM (inactive); with SNB-75 it was 4.04 µM (inactive); with BT-549 it was 4.02 µM (inactive); with OVCAR-3, 1.38 µM (inactive); with NCI-H522, 2.9 µM (inactive); in the experiment on EKVX it was 4.93 µM (inactive). The GI50 is 2.58 µM (inactive) with U-251; 2.62 µM (inactive) in the experiment with HT-29; 1.57 µM (inactive) with MDA-MB-435; 10 µM (inactive) in the experiment with MOLT-4; 1.19 µM (inactive) with Malme-3M; 1.6 µM (inactive) with SN12C. Besides, the GI50 in the experiment with HCT-15 was 1.93 µM; with SF-268, 2.16 µM (inactive); in the experiment on MDA-N it was 2.4 µM (inactive); in the experiment with CCRF-CEM it was 0.305 µM (active); in the experiment on M14, 1.25 µM (inactive); in the experiment on SF-539 it was 2.21 µM (inactive).
With `CCC1=NC(N/N=C/c2ccco2)=N/C1=C\c1ccccc1O`, the GI50 with OVCAR-4 is 2.86 µM (inactive); in the experiment on BT-549, 29.4 µM (inactive); with NCI-H522, 21.8 µM (inactive); in the experiment with EKVX, 26.7 µM (inactive); in the experiment with U-251, 56.4 µM (inactive); with HL-60, 27.4 µM (inactive). Further, the GI50 was 36 µM (inactive) with HT-29; 29.5 µM (inactive) with MDA-MB-435; 25.2 µM (inactive) in the experiment with MOLT-4; 31 µM (inactive) with Malme-3M; > 100 µM (inactive) in the experiment with SN12C; 12.6 µM in the experiment on HCT-15. Besides, the GI50 is 21.8 µM (inactive) in the experiment with SF-268, 50.4 µM (inactive) in the experiment on MDA-N, 12.7 µM (inactive) in the experiment with CCRF-CEM and 35.2 µM (inactive) in the experiment on M14.
In the case of `CCN1C(=O)C(=C/C=C/c2ccc([N+](=O)[O-])cc2)C(=O)N(CC)C1=S`, the GI50 in the experiment on OVCAR-4 was 33 µM (inactive); in the experiment on BT-549 it was 16.5 µM (inactive); in the experiment with OVCAR-3, 17.8 µM (inactive); in the experiment on EKVX, 21 µM (inactive); in the experiment with U-251, 18.5 µM (inactive); in the experiment on HL-60, 82.6 µM (inactive). The GI50 was 19.7 µM (inactive) in the experiment with HT-29; 23.4 µM (inactive) in the experiment on MDA-MB-435; 29.6 µM (inactive) with MOLT-4; 21.5 µM (inactive) in the experiment with SN12C; 29.5 µM in the experiment with HCT-15; 19.3 µM (inactive) in the experiment with SF-268. In addition, the GI50 in the experiment on MDA-N was 24.4 µM (inactive); in the experiment on CCRF-CEM it was 31.8 µM (inactive); in the experiment with M14 it was 29 µM (inactive); in the experiment with SF-539 it was 21.2 µM (inactive).
For the molecule `COc1cc(C=C2C(=O)NC(=S)NC2=O)cc(OC)c1OC`, the GI50 with OVCAR-4 is > 100 µM (inactive); in the experiment on SNB-75, 60.7 µM (inactive); in the experiment with BT-549, > 100 µM (inactive); in the experiment on OVCAR-3, > 100 µM (inactive); in the experiment on EKVX, > 100 µM (inactive); in the experiment with U-251, > 100 µM (inactive). The GI50 in the experiment with HL-60, in the experiment on HT-29, with MDA-MB-435, in the experiment on MOLT-4, in the experiment with Malme-3M and in the experiment with SN12C was > 100 µM (inactive) in each case. Moreover, the GI50 was more than 100 µM in the experiment with HCT-15; > 100 µM (inactive) in the experiment with SF-268; > 100 µM (inactive) with MDA-N; > 100 µM (inactive) in the experiment with CCRF-CEM; > 100 µM (inactive) with M14; > 100 µM (inactive) in the experiment on SF-539.
Take `Cc1cccc(N2C(=O)C3c4[nH]c5ccccc5c4C4CCC(C(C)(C)C)CC4C3C2=O)c1C` (stereo unspecified): the GI50 in the experiment on BT-549 is > 100 µM (inactive); with OVCAR-3 it was > 100 µM (inactive); in the experiment on EKVX, 29.7 µM (inactive); with U-251 it was 28.2 µM (inactive); in the experiment on HL-60 it was 16.9 µM (inactive); with HT-29, > 100 µM (inactive). Moreover, the GI50 in the experiment with MDA-MB-435 was > 100 µM (inactive); in the experiment on MOLT-4 it was > 100 µM (inactive); in the experiment with Malme-3M, > 100 µM (inactive); in the experiment with SN12C it was 78.7 µM (inactive); in the experiment with HCT-15, more than 100 µM; in the experiment with MDA-N, > 100 µM (inactive). The GI50 with CCRF-CEM is 56.6 µM (inactive); in the experiment on M14, > 100 µM (inactive); with SF-539, 75.9 µM (inactive).
